According to US20070128217A1 (priority 2003, published 2007):

Columns and labels:
[1] = system: rabbit serum obtained by immunizing a rabbit with the SARS-CoV strain Frankfurt 1; assay type: binding; parameters: Binding of a rabbit serum to linear peptides / Binding of a rabbit serum to looped peptides / Rabbit serum linear peptides / Rabbit serum looped peptides / Binding of a rabbit serum to linear peptides of protein N of SARS-CoV Urbani (Rabbit serum linear peptides) / Binding of a rabbit serum to looped/cyclic peptides of protein N of SARS-CoV Urbani (Rabbit serum looped peptides): unit not given here
[2] = system: antibodies in sera from SARS patients (sera 1a, 1b, 2, 6, 37, 62, London, SARS-yellow, SARS-green); assay type: binding, human; parameters: Binding of serum 6 to linear peptides of protein X1 of SARS-CoV Urbani / Binding of serum 37 to linear peptides of protein X1 of SARS-CoV Urbani / Binding of serum 6 to looped/cyclic peptide (PEPSCAN-ELISA) / Binding of serum 37 to looped/cyclic peptide (PEPSCAN-ELISA) / Binding of serum 37 to looped/cyclic peptides of protein X1 of SARS-CoV Urbani / Binding of serum 6 to linear peptides of protein X2 / Binding of serum 37 to linear peptides of protein X2 / Binding of serum 37 to looped/cyclic peptides of protein X2 of SARS-CoV Urbani / Binding of serum 6 to linear peptides of protein M of SARS-CoV Urbani / Binding of serum 37 to linear peptides of protein M of SARS-CoV Urbani / Binding of serum 6 to looped/cyclic peptides of protein M of SARS-CoV Urbani / Binding of serum 37 to looped/cyclic peptides of protein M of SARS-CoV Urbani / Binding of serum 6 to linear peptides of protein X3 of SARS-CoV Urbani / Binding of serum 37 to linear peptides of protein X3 of SARS-CoV Urbani / Binding of serum 37 to looped/cyclic peptides of protein X3 of SARS-CoV Urbani / Binding of serum 6 to linear peptides of protein X4 of SARS-CoV Urbani / Binding of serum 37 to linear peptides of protein X4 of SARS-CoV Urbani / Binding of serum 37 to looped/cyclic peptides of protein X4 of SARS-CoV Urbani / Binding of serum 6 to linear peptides of protein X5 of SARS-CoV Urbani / Binding of serum 37 to linear peptides of protein X5 of SARS-CoV Urbani / Binding of serum 37 to looped/cyclic peptides of protein X5 of SARS-CoV Urbani / Binding of serum 6 to linear peptides of protein N of SARS-CoV Urbani / Binding of serum 37 to linear peptides of protein N of SARS-CoV Urbani / Binding of serum 6 to linear peptide (PEPSCAN-ELISA) / Binding of serum 1a to looped/cyclic peptides of protein N of SARS-CoV Urbani / Binding of serum 1b to looped/cyclic peptides of protein N of SARS-CoV Urbani / Binding of serum 2 to looped/cyclic peptides of protein N of SARS-CoV Urbani / Binding of serum 6 to looped/cyclic peptides of protein N of SARS-CoV Urbani / Binding of serum 37 to looped/cyclic peptides of protein N of SARS-CoV Urbani / Binding of serum 62 to looped/cyclic peptides of protein N of SARS-CoV Urbani / Binding of serum London to looped/cyclic peptides of protein N of SARS-CoV Urbani / Binding of serum SARS-green to looped/cyclic peptides of protein N of SARS-CoV Urbani: unit not given here
[3] = system: control sera (pooled serum of ten healthy LUMC hospital workers; commercial negative donor pooled serum from the Dutch bloodbank); assay type: binding, human; parameters: Binding of Control serum LUMC to linear peptides / Binding of Control serum Blood-bank to linear peptides / Binding of Control serum LUMC to looped peptides / Binding of Control Serum Blood-Bank to Looped peptides / Binding of Control serum LUMC to linear peptides of the protein M of SARS-CoV Urbani / Binding of Control serum Blood-bank to linear peptides of the protein M of SARS-CoV Urbani / Binding of Control serum LUMC to looped peptides of the protein M of SARS-CoV Urbani / Binding of Control Serum Blood-Bank to Looped peptides of the protein M of SARS-CoV Urbani: unit not given here

LFMRFFTLGSITAQP
0.8: Binding of serum 1a to linear peptides of protein X1 of SARS-CoV Urbani [2]
0.5: Binding of a rabbit serum to linear peptides [1] | Binding of serum 1a to looped/cyclic peptide (PEPSCAN-ELISA) [2] | Binding of serum 6 to linear peptides of protein X1 of SARS-CoV Urbani [2] | Binding of serum 37 to looped/cyclic peptide (PEPSCAN-ELISA) [2] | Binding of serum 62 to looped/cyclic peptide (PEPSCAN-ELISA) [2] | Binding of Control serum LUMC to looped peptides [3]
0.6: Binding of serum 2 to linear peptides of protein X1 of SARS-CoV Urbani [2] | Binding of serum 37 to linear peptides of protein X1 of SARS-CoV Urbani [2] | Binding of serum 62 to linear peptides of protein X1 of SARS-CoV Urbani [2] | Binding of serum SARS-yellow to linear peptides of protein X1 of SARS-CoV Urbani [2] | Binding of Control serum LUMC to linear peptides [3]
0.2: Binding of serum London to looped/cyclic peptide (PEPSCAN-ELISA) [2] | Binding of serum SARS-green to linear peptides of protein X1 of SARS-CoV Urbani [2]
0.7: Binding of serum 1b to linear peptides of protein X1 of SARS-CoV Urbani [2] | Binding of Control Serum Blood-Bank to Looped peptides [3] | Binding of Control serum Blood-bank to linear peptides [3]
0.3: Binding of serum 1b to looped/cyclic peptide (PEPSCAN-ELISA) [2] | Binding of serum 6 to looped/cyclic peptide (PEPSCAN-ELISA) [2] | Binding of serum London to linear peptides of protein X1 of SARS-CoV Urbani [2] | Binding of serum SARS-green to looped/cyclic peptide (PEPSCAN-ELISA) [2]
0.4: Binding of a rabbit serum to looped peptides [1] | Binding of serum 2 to looped/cyclic peptide (PEPSCAN-ELISA) [2] | Binding of serum SARS-yellow to looped/cyclic peptide (PEPSCAN-ELISA) [2]

LFVTIYSHLLLVAAG
0.4: Binding of serum 1b to linear peptides of protein X1 of SARS-CoV Urbani [2] | Binding of serum 2 to looped/cyclic peptide (PEPSCAN-ELISA) [2] | Binding of serum SARS-yellow to looped/cyclic peptide (PEPSCAN-ELISA) [2] | Binding of Control serum LUMC to linear peptides [3]
0.3: Binding of serum 1b to looped/cyclic peptide (PEPSCAN-ELISA) [2] | Binding of serum 6 to linear peptides of protein X1 of SARS-CoV Urbani [2] | Binding of serum SARS-green to looped/cyclic peptide (PEPSCAN-ELISA) [2]
0.1: Binding of a rabbit serum to linear peptides [1]
0.2: Binding of serum 6 to looped/cyclic peptide (PEPSCAN-ELISA) [2] | Binding of serum London to linear peptides of protein X1 of SARS-CoV Urbani [2] | Binding of serum London to looped/cyclic peptide (PEPSCAN-ELISA) [2] | Binding of serum SARS-green to linear peptides of protein X1 of SARS-CoV Urbani [2]
0.5: Binding of serum 1a to looped/cyclic peptide (PEPSCAN-ELISA) [2] | Binding of serum 37 to looped/cyclic peptide (PEPSCAN-ELISA) [2] | Binding of serum 62 to linear peptides of protein X1 of SARS-CoV Urbani [2] | Binding of serum 62 to looped/cyclic peptide (PEPSCAN-ELISA) [2] | Binding of serum SARS-yellow to linear peptides of protein X1 of SARS-CoV Urbani [2] | Binding of Control serum Blood-bank to linear peptides [3]
0.6: Binding of a rabbit serum to looped peptides [1] | Binding of serum 2 to linear peptides of protein X1 of SARS-CoV Urbani [2] | Binding of serum 37 to linear peptides of protein X1 of SARS-CoV Urbani [2] | Binding of Control Serum Blood-Bank to Looped peptides [3] | Binding of Control serum LUMC to looped peptides [3]
0.7: Binding of serum 1a to linear peptides of protein X1 of SARS-CoV Urbani [2]

LIARCWYLHEGHQTA
0.8: Rabbit serum linear peptides [1] | Binding of serum 37 to linear peptides of protein X5 of SARS-CoV Urbani [2]
0.3: Binding of serum 37 to looped/cyclic peptides of protein X5 of SARS-CoV Urbani [2] | Binding of Control Serum Blood-Bank to Looped peptides [3]
0.7: Binding of serum 1a to linear peptides of protein X5 of SARS-CoV Urbani [2]
0.6: Binding of serum 1b to linear peptides of protein X5 of SARS-CoV Urbani [2] | Binding of serum 2 to linear peptides of protein X5 of SARS-CoV Urbani [2] | Binding of serum London to linear peptides of protein X5 of SARS-CoV Urbani [2] | Binding of serum SARS-green to linear peptides of protein X5 of SARS-CoV Urbani [2] | Binding of serum SARS-green to looped/cyclic peptides of protein X5 of SARS-CoV Urbani [2] | Binding of Control serum Blood-bank to linear peptides [3]
0.0: Rabbit serum looped peptides [1] | Binding of serum London to looped/cyclic peptides of protein X5 of SARS-CoV Urbani [2] | Binding of serum SARS-yellow to linear peptides of protein X5 of SARS-CoV Urbani [2] | Binding of serum SARS-yellow to looped/cyclic peptides of protein X5 of SARS-CoV Urbani [2] | Binding of Control serum LUMC to looped peptides [3]
0.4: Binding of serum 1a to looped/cyclic peptides of protein X5 of SARS-CoV Urbani [2] | Binding of serum 1b to looped/cyclic peptides of protein X5 of SARS-CoV Urbani [2] | Binding of Control serum LUMC to linear peptides [3]
0.2: Binding of serum 2 to looped/cyclic peptides of protein X5 of SARS-CoV Urbani [2]
0.1: Binding of serum 6 to linear peptides of protein X5 of SARS-CoV Urbani [2] | Binding of serum 6 to looped/cyclic peptides of protein X5 of SARS-CoV Urbani [2] | Binding of serum 62 to looped/cyclic peptides of protein X5 of SARS-CoV Urbani [2]
0.9: Binding of serum 62 to linear peptides of protein X5 of SARS-CoV Urbani [2]

LIQQWIQFMMSRRRL
0.8: Binding of serum 2 to looped/cyclic peptides of protein X2 of SARS-CoV Urbani [2] | Binding of serum 62 to looped/cyclic peptides of protein X2 of SARS-CoV Urbani [2] | Binding of serum SARS-yellow to linear peptides of protein X2 [2]
0.3: Binding of a rabbit serum to linear peptides [1] | Binding of serum SARS-green to looped/cyclic peptides of protein X2 of SARS-CoV Urbani [2]
1.2: Binding of a rabbit serum to looped peptides [1]
0.6: Binding of serum 37 to linear peptides of protein X2 [2] | Binding of Control serum LUMC to looped peptides [3]
0.4: Binding of serum 1b to linear peptides of protein X2 [2] | Binding of serum 2 to linear peptides of protein X2 [2] | Binding of serum SARS-green to linear peptides of protein X2 [2] | Binding of Control Serum Blood-Bank to Looped peptides [3]
0.7: Binding of serum 1a to linear peptides of protein X2 [2] | Binding of serum 6 to linear peptides of protein X2 [2] | Binding of Control serum Blood-bank to linear peptides [3]
0.5: Binding of serum 1a to looped/cyclic peptides of protein X2 of SARS-CoV Urbani [2] | Binding of serum 1b to looped/cyclic peptides of protein X2 of SARS-CoV Urbani [2] | Binding of serum 6 to looped/cyclic peptides of protein X2 of SARS-CoV Urbani [2] | Binding of serum 37 to looped/cyclic peptides of protein X2 of SARS-CoV Urbani [2] | Binding of serum 62 to linear peptides of protein X2 [2] | Binding of serum London to linear peptides of protein X2 [2] | Binding of serum SARS-yellow to looped/cyclic peptides of protein X2 of SARS-CoV Urbani [2] | Binding of Control serum LUMC to linear peptides [3]
0.9: Binding of serum London to looped/cyclic peptides of protein X2 of SARS-CoV Urbani [2]

LIVAALVFLILCFTI
0.3: Binding of serum 1b to looped/cyclic peptides of protein X4 of SARS-CoV Urbani [2] | Binding of serum 6 to looped/cyclic peptides of protein X4 of SARS-CoV Urbani [2]
0.6: Binding of serum 1a to looped/cyclic peptides of protein X4 of SARS-CoV Urbani [2] | Binding of serum 37 to linear peptides of protein X4 of SARS-CoV Urbani [2] | Binding of serum 37 to looped/cyclic peptides of protein X4 of SARS-CoV Urbani [2] | Binding of serum 62 to linear peptides of protein X4 of SARS-CoV Urbani [2] | Binding of serum 62 to looped/cyclic peptides of protein X4 of SARS-CoV Urbani [2] | Binding of serum London to linear peptides of protein X4 of SARS-CoV Urbani [2] | Binding of Control serum Blood-bank to linear peptides [3]
0.2: Binding of serum London to looped/cyclic peptides of protein X4 of SARS-CoV Urbani [2]
0.5: Rabbit serum linear peptides [1] | Binding of serum 1b to linear peptides of protein X4 of SARS-CoV Urbani [2] | Binding of serum 2 to linear peptides of protein X4 of SARS-CoV Urbani [2] | Binding of serum 2 to looped/cyclic peptides of protein X4 of SARS-CoV Urbani [2] | Binding of serum SARS-green to linear peptides of protein X4 of SARS-CoV Urbani [2] | Binding of serum SARS-yellow to looped/cyclic peptides of protein X4 of SARS-CoV Urbani [2] | Binding of Control Serum Blood-Bank to Looped peptides [3] | Binding of Control serum LUMC to looped peptides [3]
0.7: Binding of serum 1a to linear peptides of protein X4 of SARS-CoV Urbani [2]
0.4: Rabbit serum looped peptides [1] | Binding of serum 6 to linear peptides of protein X4 of SARS-CoV Urbani [2] | Binding of serum SARS-green to looped/cyclic peptides of protein X4 of SARS-CoV Urbani [2] | Binding of serum SARS-yellow to linear peptides of protein X4 of SARS-CoV Urbani [2] | Binding of Control serum LUMC to linear peptides [3]
